Assay results taken from ChEMBL document CHEMBL1153501, “3,4-Disubstituted benzofuran P1' MMP-13 inhibitors: optimization of selectivity and reduction of protein binding” (Bioorg Med Chem Lett, 2009).

Legend:
[1] = Selectivity ratio of IC50 for MMP2 to IC50 for MMP13
Interstitial collagenase = Interstitial collagenase (Homo sapiens, UniProt P03956); test: Inhibition of MMP1
[2] = target: Collagenase 3 (Bos taurus) (UniProt O77656); test: Inhibition of IL1-stimulated MMP13-mediated bovine articular cartilage collagen degradation assessed as hydroxyproline content at 0.01 uM after 17 days
[3] = target: Matrix metalloproteinase-14 (Homo sapiens, UniProt P50281); test: Inhibition of MMP14
[4] = target: Collagenase 3 (Bos taurus) (UniProt O77656); test: Inhibition of IL1-stimulated MMP13-mediated bovine articular cartilage collagen degradation assessed as hydroxyproline content at 1 uM after 17 days
Collagenase 3 = Collagenase 3 (Homo sapiens, UniProt P45452); test: Inhibition of MMP13
[5] = target: Collagenase 3 (Bos taurus) (UniProt O77656); test: Inhibition of IL1-stimulated MMP13-mediated bovine articular cartilage collagen degradation assessed as hydroxyproline content at 0.1 uM after 17 days
[6] = target: T1, A disintegrin and metalloproteinase with thrombospondin motifs 4 (Homo sapiens, UniProt O75173); test: Inhibition of aggrecanase-1
T1 sequence (O75173 whole entry): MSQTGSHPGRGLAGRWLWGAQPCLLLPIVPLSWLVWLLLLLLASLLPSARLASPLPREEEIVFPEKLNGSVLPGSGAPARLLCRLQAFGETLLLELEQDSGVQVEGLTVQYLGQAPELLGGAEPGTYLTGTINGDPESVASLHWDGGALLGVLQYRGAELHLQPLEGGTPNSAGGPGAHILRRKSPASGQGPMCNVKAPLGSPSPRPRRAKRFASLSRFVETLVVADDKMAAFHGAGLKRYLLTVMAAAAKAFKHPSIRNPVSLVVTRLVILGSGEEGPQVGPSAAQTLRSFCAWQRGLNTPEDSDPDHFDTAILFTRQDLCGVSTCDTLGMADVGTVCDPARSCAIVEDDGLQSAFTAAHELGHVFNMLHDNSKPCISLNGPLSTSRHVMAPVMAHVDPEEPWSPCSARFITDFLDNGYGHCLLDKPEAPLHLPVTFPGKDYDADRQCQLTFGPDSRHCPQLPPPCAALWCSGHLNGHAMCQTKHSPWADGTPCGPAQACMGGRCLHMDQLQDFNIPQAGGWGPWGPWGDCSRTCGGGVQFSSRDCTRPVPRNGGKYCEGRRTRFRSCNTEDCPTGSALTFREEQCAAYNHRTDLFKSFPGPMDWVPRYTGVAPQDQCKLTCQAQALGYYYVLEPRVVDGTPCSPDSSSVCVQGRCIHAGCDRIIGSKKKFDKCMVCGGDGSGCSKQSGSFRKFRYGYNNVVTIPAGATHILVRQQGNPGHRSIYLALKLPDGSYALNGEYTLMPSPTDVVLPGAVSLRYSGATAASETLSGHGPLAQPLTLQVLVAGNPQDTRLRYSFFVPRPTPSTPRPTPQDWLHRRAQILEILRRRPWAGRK

[7] = target: 72 kDa type IV collagenase (Homo sapiens, UniProt P08253); test: Inhibition of MMP2
[8] = target: Matrix metalloproteinase-9 (Homo sapiens, UniProt P14780); test: Inhibition of MMP9
albumin = albumin (Oryctolagus cuniculus, UniProt P49065); test: Protein binding in rabbit serum albumin by equilibrium dialysis assay; type: ADME; settings: read-out: PB
Sequence of albumin (P49065 whole entry): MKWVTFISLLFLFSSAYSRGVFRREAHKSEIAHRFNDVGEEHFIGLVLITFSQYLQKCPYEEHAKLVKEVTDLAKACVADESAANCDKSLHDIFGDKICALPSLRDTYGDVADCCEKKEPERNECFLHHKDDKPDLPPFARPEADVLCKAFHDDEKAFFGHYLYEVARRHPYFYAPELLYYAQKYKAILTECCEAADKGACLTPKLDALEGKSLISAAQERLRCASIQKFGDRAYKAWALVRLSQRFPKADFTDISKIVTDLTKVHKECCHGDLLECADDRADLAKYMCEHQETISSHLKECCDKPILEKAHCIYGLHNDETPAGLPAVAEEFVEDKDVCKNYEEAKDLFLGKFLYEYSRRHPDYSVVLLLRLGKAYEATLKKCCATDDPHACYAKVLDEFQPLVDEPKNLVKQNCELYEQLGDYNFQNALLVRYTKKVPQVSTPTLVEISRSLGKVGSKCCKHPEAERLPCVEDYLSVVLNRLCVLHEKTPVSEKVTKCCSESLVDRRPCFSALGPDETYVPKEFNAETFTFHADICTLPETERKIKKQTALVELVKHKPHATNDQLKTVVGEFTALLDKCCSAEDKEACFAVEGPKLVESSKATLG

Sequence of Matrix metalloproteinase-9 (P14780 whole entry): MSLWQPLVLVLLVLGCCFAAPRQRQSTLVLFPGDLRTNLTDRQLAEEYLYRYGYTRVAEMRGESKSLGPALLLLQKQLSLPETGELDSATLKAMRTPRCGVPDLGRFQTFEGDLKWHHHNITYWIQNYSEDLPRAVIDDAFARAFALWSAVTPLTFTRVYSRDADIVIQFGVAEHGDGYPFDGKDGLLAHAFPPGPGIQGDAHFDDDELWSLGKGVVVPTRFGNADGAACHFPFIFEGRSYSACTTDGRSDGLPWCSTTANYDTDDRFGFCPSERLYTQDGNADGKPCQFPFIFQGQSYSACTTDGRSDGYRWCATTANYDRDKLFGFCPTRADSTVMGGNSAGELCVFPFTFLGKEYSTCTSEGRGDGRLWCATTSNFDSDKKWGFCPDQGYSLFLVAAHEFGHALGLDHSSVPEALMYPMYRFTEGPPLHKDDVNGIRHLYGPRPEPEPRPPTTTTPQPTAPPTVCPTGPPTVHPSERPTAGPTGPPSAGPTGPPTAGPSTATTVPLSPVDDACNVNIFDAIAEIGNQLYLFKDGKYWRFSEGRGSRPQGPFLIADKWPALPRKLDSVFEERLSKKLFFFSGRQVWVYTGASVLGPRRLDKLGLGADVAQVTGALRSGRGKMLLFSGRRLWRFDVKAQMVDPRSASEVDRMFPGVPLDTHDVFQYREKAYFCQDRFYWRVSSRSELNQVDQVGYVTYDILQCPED
Sequence of 72 kDa type IV collagenase (P08253 whole entry): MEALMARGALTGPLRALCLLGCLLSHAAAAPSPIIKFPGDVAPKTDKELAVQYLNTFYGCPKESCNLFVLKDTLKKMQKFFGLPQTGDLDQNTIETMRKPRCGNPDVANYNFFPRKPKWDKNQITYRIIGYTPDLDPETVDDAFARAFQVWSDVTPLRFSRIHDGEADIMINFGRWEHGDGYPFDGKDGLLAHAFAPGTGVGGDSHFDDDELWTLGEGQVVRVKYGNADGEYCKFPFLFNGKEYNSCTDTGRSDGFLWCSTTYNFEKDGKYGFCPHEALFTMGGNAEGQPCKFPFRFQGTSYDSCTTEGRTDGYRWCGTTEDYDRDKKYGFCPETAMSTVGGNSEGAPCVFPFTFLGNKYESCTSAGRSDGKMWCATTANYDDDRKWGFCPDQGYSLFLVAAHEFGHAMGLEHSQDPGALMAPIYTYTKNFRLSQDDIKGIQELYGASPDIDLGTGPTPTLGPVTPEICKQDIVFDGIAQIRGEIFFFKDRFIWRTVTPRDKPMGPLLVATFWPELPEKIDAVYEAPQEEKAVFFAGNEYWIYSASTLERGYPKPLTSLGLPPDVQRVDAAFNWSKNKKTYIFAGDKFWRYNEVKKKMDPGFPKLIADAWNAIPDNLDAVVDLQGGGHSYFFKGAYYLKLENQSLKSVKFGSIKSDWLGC
Sequence of Interstitial collagenase (P03956 whole entry, looked up): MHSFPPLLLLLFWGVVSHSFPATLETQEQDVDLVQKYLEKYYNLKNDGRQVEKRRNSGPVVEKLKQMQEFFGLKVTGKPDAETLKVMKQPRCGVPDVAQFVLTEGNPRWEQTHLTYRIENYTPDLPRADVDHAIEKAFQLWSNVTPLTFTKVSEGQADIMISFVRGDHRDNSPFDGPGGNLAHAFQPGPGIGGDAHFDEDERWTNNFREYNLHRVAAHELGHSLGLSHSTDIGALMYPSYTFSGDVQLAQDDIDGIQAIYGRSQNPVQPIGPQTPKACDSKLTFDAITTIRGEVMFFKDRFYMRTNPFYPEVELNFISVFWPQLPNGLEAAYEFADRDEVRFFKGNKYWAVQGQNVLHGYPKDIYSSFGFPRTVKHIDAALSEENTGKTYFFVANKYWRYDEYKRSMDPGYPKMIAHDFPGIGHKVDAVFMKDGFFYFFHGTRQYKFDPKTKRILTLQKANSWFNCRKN

SMILES	Ratio IC50 [1]	further results
CCOc1cccc2oc(C(=O)Nc3ccc(-c4ccc(S(=O)(=O)N[C@H](C(=O)O)C(C)C)cc4)cc3)c(C)c12	485	
Cc1c(C(=O)Nc2ccc(-c3ccc(S(=O)(=O)N[C@H](C(=O)O)C(C)C)cc3)cc2)oc2cccc(N(C)C)c12	786	
CC(=O)Nc1cccc2oc(C(=O)Nc3ccc(-c4ccc(S(=O)(=O)N[C@H](C(=O)O)C(C)C)cc4)cc3)c(C)c12	152	
CNc1cccc2oc(C(=O)Nc3ccc(-c4ccc(S(=O)(=O)N[C@H](C(=O)O)C(C)C)cc4)cc3)c(C)c12	108	
Cc1c(C(=O)Nc2ccc(-c3ccc(S(=O)(=O)N[C@H](C(=O)O)C(C)C)cc3)cc2)oc2cccc(NS(C)(=O)=O)c12	165	IC50 (Interstitial collagenase): 12 µM; inhibition [2]: 51%; IC50 [3]: 11.2 µM; inhibition [4]: 96%; IC50 (Collagenase 3): 13 nM; inhibition [5]: 69%; IC50 [6]: 2200 nM; IC50 [7]: 2.15 µM; IC50 [8]: > 10 µM
COc1c(Br)ccc2oc(C(=O)Nc3ccc(-c4ccc(S(=O)(=O)N[C@H](C(=O)O)C(C)C)cc4)cc3)c(C)c12	739	fraction unbound (albumin): < 0.01
COc1cccc2oc(C(=O)Nc3ccc(-c4ccc(S(=O)(=O)N[C@H](C(=O)O)C(C)C)cc4)cc3)c(C)c12	110	
Cc1c(C(=O)Nc2ccc(-c3ccc(S(=O)(=O)N[C@H](C(=O)O)C(C)C)cc3)cc2)oc2cccc(-c3ccccc3)c12	243	
C#Cc1cccc2oc(C(=O)Nc3ccc(-c4ccc(S(=O)(=O)N[C@H](C(=O)O)C(C)C)cc4)cc3)c(C)c12	98	
COC(=O)C(C)(C)Oc1cccc2oc(C(=O)Nc3ccc(-c4ccc(S(=O)(=O)N[C@H](C(=O)O)C(C)C)cc4)cc3)c(C)c12	248	
Cc1c(C(=O)Nc2ccc(-c3ccc(S(=O)(=O)N[C@H](C(=O)O)C(C)C)cc3)cc2)oc2cccc(O)c12	63	
Cc1c(C(=O)Nc2ccc(-c3ccc(S(=O)(=O)N[C@H](C(=O)O)C(C)C)cc3)cc2)oc2cccc(Oc3ccccc3)c12	263	
Cc1c(C(=O)Nc2ccc(-c3ccc(S(=O)(=O)N[C@H](C(=O)O)C(C)C)cc3)cc2)oc2cccc(-c3ccoc3)c12	322	
Cc1c(C(=O)Nc2ccc(-c3ccc(S(=O)(=O)N[C@H](C(=O)O)C(C)C)cc3)cc2)oc2cccc(CCCO)c12	621	
Cc1c(C(=O)Nc2ccc(-c3ccc(S(=O)(=O)N[C@H](C(=O)O)C(C)C)cc3)cc2)oc2cccc(C#N)c12	157	inhibition [2]: 23%; inhibition [4]: 100%; inhibition [5]: 87%; IC50 [8]: > 10 µM
Cc1c(C(=O)Nc2ccc(-c3ccc(S(=O)(=O)N[C@H](C(=O)O)C(C)C)cc3)cc2)oc2cccc(N3CCOCC3)c12	51	
Cc1cccc2oc(C(=O)Nc3ccc(-c4ccc(S(=O)(=O)N[C@H](C(=O)O)C(C)C)cc4)cc3)c(C)c12	287	
Cc1c(C(=O)Nc2ccc(-c3ccc(S(=O)(=O)N[C@H](C(=O)O)C(C)C)cc3)cc2)oc2cccc(N)c12	75	
COCCCc1cccc2oc(C(=O)Nc3ccc(-c4ccc(S(=O)(=O)N[C@H](C(=O)O)C(C)C)cc4)cc3)c(C)c12	364	
Cc1c(C(=O)Nc2ccc(-c3ccc(S(=O)(=O)N[C@H](C(=O)O)C(C)C)cc3)nc2)oc2cccc(NS(C)(=O)=O)c12	188	IC50 (Collagenase 3): 40 nM; IC50 [7]: 7.5 µM
CCc1cccc2oc(C(=O)Nc3ccc(-c4ccc(S(=O)(=O)N[C@H](C(=O)O)C(C)C)cc4)cc3)c(C)c12	613	
CC#Cc1cccc2oc(C(=O)Nc3ccc(-c4ccc(S(=O)(=O)N[C@H](C(=O)O)C(C)C)cc4)cc3)c(C)c12	1580	
